# US10336735B2, “Small molecule inhibitors of fibrosis” (THE CALIFORNIA INSTITUTE FOR BIOMEDICAL RESEARCH, priority 2014, dated 2019)
# System: primary human lung fibroblasts and primary rodent HSCs
# Assay: High content imaging assay (α-SMA staining, cell morphology) of fibroblast to myofibroblast transdifferentiation, confirmed by Western blot and RT-PCR
# Details: imaging and western based activity
# Procedure, shortened: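 Primary human lung fibroblasts and primary rodent HSCs were serum-starved and then TGF-β-treated to drive transdifferentiation in 384-well format, with SB-431542 as positive control. Readouts were α-SMA immunofluorescence and cell morphology by high-content imaging, confirmed by Western blot and RT-PCR in 4-day, 4-point dose-response assays; EC50 values are graded.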
substance,measurement,value
"cis (±)-4-(4-(4-(4-((4-((2H-1,2,3-triazol-2-yl)methyl)-4-(2,4-difluorophenyl)-1,3-dioxolan-2-yl)methoxy)phenyl)piperazin-1-yl)phenyl)-1-sec-butyl-1H-1,2,4-triazol-5(4H)-one [Compound 199]",EC50,< 500 nM
